Measurements taken from paper PMC8232238 (Cells, 2021).
Like-named read-outs stand apart in the source and are kept apart here.

Assays:
[1] = system: acetylated tubulin in A549 cells; experiment: Tubulin acetylation in A549 cells, immunostaining with high content imaging; format: cell-based, human; conditions: 24 h; for Concentration from which tubulin acetylation was significantly increased: compared to untreated cells
Method: (§1) To confirm the observed activities of the selected test compounds against HDAC6, the acetylation status of tubulin in the human lung cancer cell line A549 was investigated by immunostaining combined with automated high content image analysis (see supplementary material for full details). […] The apparent drop in histone acetylation by both compounds above 10 μM is indicative of a potential cytotoxicity at higher concentrations (data not shown).
(§2) Figure 5 Cell-based assessment of HDAC activity and selectivity. Dose and time-dependency of tubulin and histone acetylation by test compounds. A549 cells were treated with (A,B) different concentrations (0–50 µM) of CF011, KNH019 and tubastatin for 24 h or with (C,D) 1 µM over different time intervals before (A,C) tubulin acetylation or (B,D) histone acetylation were automatically quantified using high content imaging. Data represent the average of four independent experiments with four replicate wells/experiments. The statistical significances of effects compared to the untreated control were analysed using Brown–Forsythe and Welch one-way ANOVA analyses using Graph Pad Prism. The significance was set as * 0.05 > p ≥ 0.01, ** 0.01 > p ≥ 0.002. Error bars represent the Standard Error of Mean (SEM). (E) Representative fluorescence images show tubulin acetylation (yellow), histone acetylation (red) and nuclear counterstain (DAPI, blue) after 24 h of exposure to test compounds. Secondary antibodies were detected using excitation/emission filters for CY3 (excitation: 542/27 nm, emission: 597/45 nm), CY5 (excitation: 632/22 nm, emission: 684/25 nm) and DAPI (excitation: 390/18 nm, emission: 435/48 nm), respectively. […]
(§3) S2.2 Cell Culture, Treatment and Immunostaining:
(§4) A549 cells (ATCC® CCL-185™, In Vitro Technologies Pty. Ltd., Victoria, Australia) were cultured in low glucose Dulbecco’s Modified Eagle Media (DMEM, 1 g/L glucose, 0.584 g/L L-glutamine, 3.7 g/L sodium bicarbonate, 10 % fetal bovine serum) under standard conditions (> 90 % humidity, 37 °C temperature, 5 % CO 2). For experiments, 5,000 cells/ well were seeded in 100 µl serum free DMEM in 384 well plates (µCLEAR®, Greiner) and left to adhere for 24 hours before the treatment. Cells were treated with 100 µl of test compound -containing media for up to 24 hours before cells were fixed with 4 % paraformaldehyde (PFA) solution in PBS (10 minutes at room temperature (RT)) and permeabi lized with 50 µl of 0.5 % Triton X -100 in PBS. Subsequently, cells were blocked in PBST (5% fetal bovine serum, 5% bovine serum albumin, 5% goat serum, 0.1% Tween 20 in PBS) before stained with anti - acetylated tubulin (T7451, Sigma Aldrich; 1:1,000) and an ti-acetylated histone antibody (ab47915, Abcam; 1:1,000) overnight at 4 °C. Subsequently, cells were exposed to secondary antibodies (goat anti-mouse Alexa fluor 594 (Invitrogen; 1:10,000) and goat anti -rabbit Alexa fluor 647 (Invitrogen; 1:10,000) in PBST ) and DAPI solution (Invitrogen; 1:10,000 in PBST) before images were acquired.
(§5) Fluorescence images were acquired (10x magnification, 2 -D format) using the InCell 2200 high content imaging system (V7.3, GE Healthcare life sciences) wi th CY3 (excitation: 542/27 nm, emission: 597/45 nm), CY5 (excitation: 632/22 nm, emission: 684/25 nm) and DAPI (excitation: 390/18 nm, emission:
435/48 nm) filters. Two images/well at predefined positions were automatically acquired with 4 replicate wells for each treatment condition/ experiment. At least 3 independent experiments were conducted for each condition. Acquired images were automatically processed using InCarta software (v1.6, GE Healthcare life sciences). All images were manually checked for ar tefacts. Images with less than 30 cells were excluded from the analysis. Excel and GraphPad Prism was used for statistical analysis and graphical representation. Data was expressed as % Relative Fluorescence Units (RFU) […]

[2] = system: acetylated histone in A549 cells; experiment: Histone acetylation in A549 cells, immunostaining with high content imaging; format: cell-based, human; conditions: 24 h; for Concentration from which histone acetylation was significantly increased: compared to untreated cells
Method: as §1, §2, §3, §4, §5
435/48 nm) filters. […] Data was expressed as % Relative Fluorescence Units (RFU) […]

HDAC1 [3] = molecular target: T1, HDAC1 (Homo sapiens, UniProt Q13547); conditions: previously reported 4-amino analogues; cited from earlier work
T1 construct: purchased Reaction Biology corporation (contract assay)

HDAC3 = molecular target: T2, HDAC3 (Homo sapiens, UniProt O15379); conditions: previously reported 4-amino analogues; cited from earlier work
T2 construct: purchased Reaction Biology corporation (contract assay)

HDAC8 = molecular target: T3, HDAC8 (Homo sapiens, UniProt Q9BY41); conditions: previously reported 4-amino analogues; cited from earlier work
T3 construct: purchased Reaction Biology corporation (contract assay)
T3 sequence (Q9BY41 1-377): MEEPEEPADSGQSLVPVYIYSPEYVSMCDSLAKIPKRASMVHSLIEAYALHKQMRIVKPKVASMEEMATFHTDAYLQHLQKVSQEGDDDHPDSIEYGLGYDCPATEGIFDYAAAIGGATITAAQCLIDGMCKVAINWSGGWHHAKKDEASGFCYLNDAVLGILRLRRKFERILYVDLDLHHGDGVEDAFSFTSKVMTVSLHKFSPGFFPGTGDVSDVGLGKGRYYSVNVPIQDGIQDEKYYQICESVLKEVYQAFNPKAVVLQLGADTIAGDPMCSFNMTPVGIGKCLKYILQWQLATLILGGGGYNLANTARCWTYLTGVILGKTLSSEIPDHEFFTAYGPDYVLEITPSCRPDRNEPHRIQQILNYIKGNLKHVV

HDAC11 = molecular target: T4, HDAC11 (Homo sapiens, UniProt Q96DB2); conditions: previously reported 4-amino analogues; cited from earlier work
T4 construct: purchased Reaction Biology corporation (contract assay)
T4 sequence (Q96DB2 1-347): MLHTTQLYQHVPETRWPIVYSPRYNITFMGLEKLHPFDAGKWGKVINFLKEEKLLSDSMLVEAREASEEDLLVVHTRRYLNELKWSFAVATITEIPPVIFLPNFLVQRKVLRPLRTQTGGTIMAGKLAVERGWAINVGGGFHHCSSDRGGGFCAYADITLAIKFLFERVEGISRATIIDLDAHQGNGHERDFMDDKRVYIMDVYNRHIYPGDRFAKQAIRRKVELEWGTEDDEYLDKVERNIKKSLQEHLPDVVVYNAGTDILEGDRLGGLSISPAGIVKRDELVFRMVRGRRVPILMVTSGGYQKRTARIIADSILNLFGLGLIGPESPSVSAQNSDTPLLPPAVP

HDAC1 [4] = molecular target: T1, HDAC1; parameters: method as in PMID 30168823; conditions: Figure 2; cited from earlier work
HDAC6 = molecular target: T5, HDAC6 (Homo sapiens, UniProt Q9UBN7); parameters: method as in PMID 30168823; conditions: Figure 2; cited from earlier work
T5 construct: purchased Reaction Biology corporation (contract assay)
T5 sequence (Q9UBN7 1-1215): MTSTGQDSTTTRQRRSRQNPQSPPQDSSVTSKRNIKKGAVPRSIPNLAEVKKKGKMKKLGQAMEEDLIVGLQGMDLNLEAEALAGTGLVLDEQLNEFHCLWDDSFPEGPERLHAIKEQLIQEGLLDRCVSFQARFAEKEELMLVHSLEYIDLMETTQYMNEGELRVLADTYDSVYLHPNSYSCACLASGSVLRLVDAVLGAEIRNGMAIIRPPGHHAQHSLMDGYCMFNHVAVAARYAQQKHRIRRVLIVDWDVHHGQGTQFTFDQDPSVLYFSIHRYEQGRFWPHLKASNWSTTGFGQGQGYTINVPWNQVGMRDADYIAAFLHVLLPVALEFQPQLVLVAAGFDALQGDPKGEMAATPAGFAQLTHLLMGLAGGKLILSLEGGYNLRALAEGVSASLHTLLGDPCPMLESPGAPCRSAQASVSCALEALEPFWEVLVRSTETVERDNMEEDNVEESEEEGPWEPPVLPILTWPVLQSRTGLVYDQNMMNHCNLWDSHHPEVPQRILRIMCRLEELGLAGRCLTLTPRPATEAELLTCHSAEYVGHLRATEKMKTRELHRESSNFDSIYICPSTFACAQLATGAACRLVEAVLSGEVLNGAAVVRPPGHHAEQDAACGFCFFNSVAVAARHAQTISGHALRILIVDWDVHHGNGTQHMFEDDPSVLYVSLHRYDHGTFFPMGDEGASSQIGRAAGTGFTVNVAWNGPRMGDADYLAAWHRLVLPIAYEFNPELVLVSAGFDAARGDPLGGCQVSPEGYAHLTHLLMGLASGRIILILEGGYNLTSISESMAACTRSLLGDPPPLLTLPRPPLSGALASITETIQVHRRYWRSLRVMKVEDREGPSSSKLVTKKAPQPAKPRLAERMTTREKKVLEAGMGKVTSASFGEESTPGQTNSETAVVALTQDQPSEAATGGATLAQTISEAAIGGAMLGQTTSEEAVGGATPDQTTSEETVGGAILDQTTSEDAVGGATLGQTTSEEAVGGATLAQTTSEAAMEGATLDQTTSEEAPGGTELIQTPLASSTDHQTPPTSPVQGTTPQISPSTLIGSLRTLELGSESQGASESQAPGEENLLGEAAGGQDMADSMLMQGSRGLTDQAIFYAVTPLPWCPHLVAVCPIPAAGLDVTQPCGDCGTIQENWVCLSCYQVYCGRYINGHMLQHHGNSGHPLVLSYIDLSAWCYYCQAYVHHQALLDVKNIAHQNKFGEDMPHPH

T2 sequence (O15379 whole entry): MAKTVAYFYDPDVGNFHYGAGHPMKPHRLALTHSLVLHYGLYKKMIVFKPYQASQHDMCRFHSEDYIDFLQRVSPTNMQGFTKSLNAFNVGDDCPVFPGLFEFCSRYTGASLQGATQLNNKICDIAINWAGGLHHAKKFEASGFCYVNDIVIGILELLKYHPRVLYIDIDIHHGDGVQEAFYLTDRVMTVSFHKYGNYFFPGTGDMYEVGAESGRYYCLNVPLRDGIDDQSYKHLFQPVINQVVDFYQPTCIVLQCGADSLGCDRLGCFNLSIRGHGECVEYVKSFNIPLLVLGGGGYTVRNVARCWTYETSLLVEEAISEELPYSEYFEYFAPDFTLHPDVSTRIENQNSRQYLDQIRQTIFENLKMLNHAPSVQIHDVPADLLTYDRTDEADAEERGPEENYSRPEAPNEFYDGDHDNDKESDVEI
T2 sequence (Q9Y618 395-489 partner limits assumed): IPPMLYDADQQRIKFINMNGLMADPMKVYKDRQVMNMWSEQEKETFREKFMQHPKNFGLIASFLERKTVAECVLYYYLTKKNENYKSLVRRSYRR
T1 sequence (Q13547 whole entry): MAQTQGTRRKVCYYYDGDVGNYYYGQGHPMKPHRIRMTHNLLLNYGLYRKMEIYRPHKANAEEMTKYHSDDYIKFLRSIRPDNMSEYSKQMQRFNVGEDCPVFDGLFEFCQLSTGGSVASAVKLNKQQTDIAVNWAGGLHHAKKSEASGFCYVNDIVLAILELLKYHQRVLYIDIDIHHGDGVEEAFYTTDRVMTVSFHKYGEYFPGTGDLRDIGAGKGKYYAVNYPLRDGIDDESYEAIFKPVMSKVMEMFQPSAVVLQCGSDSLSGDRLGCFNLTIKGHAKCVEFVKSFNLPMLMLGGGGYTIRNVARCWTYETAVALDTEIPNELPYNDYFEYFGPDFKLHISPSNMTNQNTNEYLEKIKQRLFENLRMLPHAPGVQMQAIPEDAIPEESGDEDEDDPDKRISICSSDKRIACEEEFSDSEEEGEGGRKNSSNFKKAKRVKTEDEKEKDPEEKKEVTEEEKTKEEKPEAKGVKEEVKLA

**Q.** For `O=C(CCCCCN1C(=O)c2cccc3c(NCc4ccccc4)ccc(c23)C1=O)NO` [CF011], which “Increase of tubulin acetylation compared to untreated cells (up to)” value ([1]; 0-50 µM, dose-dependent) is on record?
**A.** ~1.5 fold

**Q.** And the “Tubulin acetylation in representative immunostaining images” value ([1]; 10 µM)?
**A.** strongly induce

**Q.** What about the “Concentration from which tubulin acetylation was significantly increased” value [1] of the same compound?
**A.** 10^−9 mM

**Q.** And the “Histone acetylation in representative immunostaining images” value ([2]; 10 µM)?
**A.** strongly induce

**Q.** What about the “Concentration from which histone acetylation was significantly increased” value [2] of the same compound?
**A.** 10^−6 mM

**Q.** What about the “Selectivity factor (SF) = HDAC1 IC50/HDAC6 IC50” value (HDAC1 [3]) of the same compound?
**A.** 566

**Q.** And the IC50 (HDAC3)?
**A.** 360 ± 0.7 nM

**Q.** And the “Selectivity factor (SF) HDAC3 against HDAC6” value (HDAC3)?
**A.** 103

**Q.** What about the “Selectivity factor (SF) HDAC8 against HDAC6” value (HDAC8) of the same compound?
**A.** 703

**Q.** What about the “Selectivity factor (SF) HDAC11 against HDAC6” value (HDAC11) of the same compound?
**A.** 43

**Q.** What does the source list for `COc1cc2c3c(cccc3c1)C(=O)N(Cc1ccc(C(=O)NO)cc1)C2=O` [Compound 3]?
**A.** IC50 (HDAC1 [4]): 33 nM; Selectivity factor (SF) = HDAC1 IC50/HDAC6 IC50 (HDAC1 [4]): 412; IC50 (HDAC6): 0.08 nM

**Q.** Which “Selectivity factor (SF) = HDAC1 IC50/HDAC6 IC50” value (HDAC1 [3]) does the source give for `CCCNc1ccc2c3c(cccc13)C(=O)N(CCCCCC(=O)NO)C2=O` [CF010] here?
**A.** 123

**Q.** What about the IC50 (HDAC3) of the same compound?
**A.** 110 ± 4 nM

**Q.** What about the “Selectivity factor (SF) HDAC3 against HDAC6” value (HDAC3) of the same compound?
**A.** 23

**Q.** What about the “Selectivity factor (SF) HDAC8 against HDAC6” value (HDAC8) of the same compound?
**A.** 317

**Q.** And the “Selectivity factor (SF) HDAC11 against HDAC6” value (HDAC11)?
**A.** 16

**Q.** For `CN1CCc2c(c3ccccc3n2Cc2ccc(C(=O)NO)cc2)C1` [tubastatin], which “Concentration from which tubulin acetylation was significantly increased” value [1] is on record?
**A.** 10^−3 mM

**Q.** What about the “Concentration from which histone acetylation was significantly increased” value [2] of the same compound?
**A.** 10^−3 mM
